The values that follow come from US20250295648A1 (priority 2024, published 2025).

In series [1] the test system is PD patients with LID. As to the kind of experiment: Hospital Anxiety Depression Scale (HADS). In kind it is in vivo, human. The source says:
The HADS is used to determine the levels of anxiety and depression that a person is experiencing. The questionnaire consists of 7 items related to anxiety and 7 related to depression. Each item on the questionnaires is scored from 0-3, which means that a person can score between 0 and 21 for either anxiety or depression.

The nature of the next series: clinical. The settings on record: human, in vivo. How it is done: Blood was collected for NLX-112 plasma concentration measurements on Days 14, 21, 28, 42 and 70 (Visits 4, 5, 6, 7 and 9).
The concentration of NLX-112 was determined in 120 human plasma samples collected from the clinical study. The bioanalysis was performed in the calibration range of 1.0 ng/ml to 1620 ng/ml using a 35 μL sample volume.
The Qualification Runs 1 and 2 contained two calibration curves, six sets of QC samples at eight levels (QC1 to QC8), as well as UPLC and Tecan Carry-over test samples. The analytical run 1 contained two calibration curves, four sets of QC samples at three levels (QC L, M and H), as well as […] and Tecan Carry-over test samples. The qualification and analysis was performed in an exploratory setting.
The analytical instrumentation consisted of an Acquity UPLC system coupled to a Xevo-TQS micro tandem quadrupole mass spectrometer (Waters Corp., Milford, MA, USA). […]
A combined calibration curve was constructed from the two sets of calibration samples for each run. […] The lower limit of quantification (LLOQ) for the method was 1.0 ng/mL and the upper limit of quantification (ULOQ) was 1620 ng/mL of NLX-112 in human plasma.
The mean NLX-112 blood plasma concentration measured in treated patients on study days 14 (Visit 4), […] (Visit 5), 28 (Visit 6), 42 (Visit 7), and 70 (Visit 9) is shown in Table 5. […]

Series [2] relates to PD patients with LID. Kind of series: King's Parkinson's Disease Pain Scale (KPPS). The class given is in vivo, human. The settings on record: for KPPS, mean change from baseline: per-protocol set, p < 0.01 vs baseline. The source says:
The KPPS is a rater-interview-based scale conducted with the patient and caregiver (if available). It is a 14-item scale covering 7 domains of pain: • z. Musculoskeletal pain • aa. Chronic pain • bb. Fluctuation-related pain • cc. Nocturnal pain • dd. Orofacial pain • ee. Edema/swelling; discoloration • ff. Radicular pain Each item is scored by severity (0-3; none to very severe) multiplied by frequency (0-4; never to all the time), for an item sub score of 0-12, resulting in a total score from 0 to 168. Ratings are based on the previous month, or in the case of this study, the intervening period since the previous clinic visit (about 3 weeks). Treatment effects would be analyzed as change from baseline for total score and for individual pain domains.

A further series concerns MPTP-treated marmosets. The conditions noted are these: in vivo; cited from earlier work.
The next series deals with 6-OH-DA lesioned rats. The conditions noted are these: rat, in vivo; cited from earlier work.
Series [3] deals with PD patients with LID. As to the kind of experiment: ICIQ Overactive Bladder Module (ICIQ-OAB). In kind it is in vivo, human. The conditions noted are these: for ICIQ-OAB, mean change from baseline: per-protocol set. The source says:
The ICIQ-OAB provides a brief and robust measure to assess the impact of symptoms of overactive bladder on quality of life and outcome of treatment. It is a 4-item patient reported outcome covering 4 domains of bladder function: frequency, nocturia, urgency, and urge urinary incontinence. Each item is scored by frequency of 0-4, for a total score of 0-16. Ratings would be based on the previous month or since the last clinic visit. Efficacy would be assessed as change from the baseline total score.

For series [4] the following is noted: both, human, in vivo. The source says: Based on the befiradol Cmax values observed in healthy male volunteers reported in WO 2016/005527, the sustained release compositions disclosed above in Tables 26-28 would be expected to provide Cmax values not less than those shown in Table 29 after a single oral administration to patients with Parkinson's disease. […] Therefore, the Cmax values in Table 29 for SR1-SR9 may be higher (e.g., by 10% or 20%) when administered to patients with Parkinson's disease since young adults rarely experience Parkinson's disease, which usually develops around age 60 or older.

A further series concerns striatal 5-HT release. The conditions noted are these: rat, in vivo; cited from earlier work.
The next series has as its target T1, 5-HT1A receptors (Homo sapiens, UniProt P08908).
T1 sequence (P08908 1-422): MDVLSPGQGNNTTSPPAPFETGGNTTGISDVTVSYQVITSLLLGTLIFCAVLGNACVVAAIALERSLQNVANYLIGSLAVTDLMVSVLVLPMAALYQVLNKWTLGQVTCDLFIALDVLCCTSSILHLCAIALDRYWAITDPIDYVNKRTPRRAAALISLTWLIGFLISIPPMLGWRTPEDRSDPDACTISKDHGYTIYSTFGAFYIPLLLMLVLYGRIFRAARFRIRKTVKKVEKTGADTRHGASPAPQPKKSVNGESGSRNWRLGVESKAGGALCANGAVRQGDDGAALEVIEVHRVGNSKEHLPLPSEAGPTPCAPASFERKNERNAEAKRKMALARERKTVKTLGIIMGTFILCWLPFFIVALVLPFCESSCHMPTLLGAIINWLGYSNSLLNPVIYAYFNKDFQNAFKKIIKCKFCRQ
The conditions noted are these: cited from earlier work.

Setting [5] is: per-protocol set (n = 15), Baseline.
The mark [6] stands for this setting: per-protocol set, Δ D 28 (end of up-titration).

In the case of `Cc1ccc(CNCC2(F)CCN(C(=O)c3ccc(F)c(Cl)c3)CC2)nc1` [NLX-112, (3-chloro-4-fluoro-phenyl)-[4-fluoro-4-{[(5-methyl-pyridin-2-ylmethyl)-amino]-methyl}piperidin-1-yl]methanone], the “anxiety and depression (HADS)” value with PD patients with LID [1] (Days 28 or 42) is listed as “no consistent statistically significant effect”. Also, in the series on PD patients with LID [1] (setting [5]), the “HADS (Anxiety), mean” value amounted to 4.5 and the “HADS (Depression), mean” value came out at 3.7. For the same compound, in the series with PD patients with LID [1] (setting [6]), the “HADS (Anxiety), mean change from baseline” value is reported as −0.5 and the “HADS (Depression), mean change from baseline” value is given as −0.4. Besides, the “HADS (Depression), mean change from baseline” value in the series with PD patients with LID [1] (per-protocol set, Δ D 42 (end of stable dosing)) is −0.6. In the series “clinical”, this compound had a concentration at 14 day of 32.3 ng/mL and a concentration at 25 day of 38.7 ng/mL. The “KPPS total score (reported pain), change from baseline” value with PD patients with LID [2] (Day 42, also seen with placebo) is reported as “statistically significant improvement”. For the same compound, in the series with PD patients with LID [2] (setting [5]), the “KPPS, mean” value is 16.0. For the same compound, in the series with PD patients with LID [2] (Δ D 28 (end of up-titration)), the “KPPS, mean change from baseline” value is −4.6. For the same compound, the “KPPS, mean change from baseline” value with PD patients with LID [2] (Δ D 42 (end of stable dosing)) is listed as −4.8. Further, in the series on MPTP-treated marmosets, the disability scores entry was “reduces disability scores”. Further, in the series on 6-OH-DA lesioned rats, the rotation behavior entry is listed as “increases rotation behavior”. Further, in the series with PD patients with LID [3] (Days 28 or 42), the “incontinence (ICIQ-OAB)” value was “no consistent statistically significant effect”. Also, the “ICIQ-OAB, mean” value with PD patients with LID [3] (setting [5]) was 18.3. Besides, in the series with PD patients with LID [3] (Δ D 28 (end of up-titration)), the “ICIQ-OAB, mean change from baseline” value was found to be 0.7. Moreover, the “ICIQ-OAB, mean change from baseline” value in the series with PD patients with LID [3] (Δ D 42 (end of stable dosing)) is −0.8. In addition, in [4], the “Cmax in female subjects, higher than males” value was 20%-40. Also, the “striatal 5-HT release and dopamine surge following L-DOPA” value in the series on striatal 5-HT release was “inhibited striatal 5-HT release and blunted the ‘dopamine surge’”. For the same compound, on 5-HT1A receptors, the “agonist efficacy at 5-HT1A receptors” value is “full agonist properties” and the “selectivity for 5-HT1A receptors” value is recorded as “exceptional selectivity”.
